Here are results for 16 molecules from patent US20260152497A1, “MIDAZO[4,5-c]QUINOLINE-4-AMINE COMPOUNDS AND CONJUGATES THEREOF, THEIR PREPARATION, AND THEIR [sequence] APPLICATIONS” (SANOFI, priority 2021, published 2026).

Like-named read-outs stand apart in the source and are kept apart here.

The target in one data set is T1, human TLR7 (Homo sapiens, UniProt Q9NYK1).
T1 construct: host or cells: HEK293 (HEK-Blue hTLR7); engineered variants additionally transfected with tumor antigen genes
T1 sequence (Q9NYK1 27-1049): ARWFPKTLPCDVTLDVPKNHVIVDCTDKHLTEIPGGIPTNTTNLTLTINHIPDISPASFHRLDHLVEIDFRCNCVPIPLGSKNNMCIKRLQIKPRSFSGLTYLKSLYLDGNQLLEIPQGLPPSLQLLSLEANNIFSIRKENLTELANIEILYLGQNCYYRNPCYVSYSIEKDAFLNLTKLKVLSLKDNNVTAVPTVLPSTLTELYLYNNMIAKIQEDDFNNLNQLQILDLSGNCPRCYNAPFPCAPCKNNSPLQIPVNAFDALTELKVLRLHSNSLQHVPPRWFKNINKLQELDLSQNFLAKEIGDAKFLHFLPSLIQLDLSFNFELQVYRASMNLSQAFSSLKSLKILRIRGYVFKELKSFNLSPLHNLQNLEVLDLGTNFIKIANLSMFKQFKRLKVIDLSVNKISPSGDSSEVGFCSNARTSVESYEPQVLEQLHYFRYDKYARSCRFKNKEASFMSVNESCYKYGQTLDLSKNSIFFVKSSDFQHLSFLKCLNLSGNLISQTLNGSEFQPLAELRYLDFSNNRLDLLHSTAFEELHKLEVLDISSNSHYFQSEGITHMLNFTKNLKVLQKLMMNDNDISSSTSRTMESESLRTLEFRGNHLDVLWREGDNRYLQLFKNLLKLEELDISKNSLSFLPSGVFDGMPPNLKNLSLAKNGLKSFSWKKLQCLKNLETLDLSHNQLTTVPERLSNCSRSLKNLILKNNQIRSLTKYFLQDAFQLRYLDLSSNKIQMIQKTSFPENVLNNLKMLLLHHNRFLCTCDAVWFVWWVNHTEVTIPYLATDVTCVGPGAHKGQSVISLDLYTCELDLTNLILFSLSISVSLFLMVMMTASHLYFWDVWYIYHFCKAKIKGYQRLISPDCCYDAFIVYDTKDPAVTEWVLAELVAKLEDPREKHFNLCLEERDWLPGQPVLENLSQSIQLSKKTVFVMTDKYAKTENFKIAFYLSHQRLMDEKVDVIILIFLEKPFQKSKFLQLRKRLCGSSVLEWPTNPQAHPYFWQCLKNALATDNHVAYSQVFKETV
Briefly: TLR7 pathway activation, parental HEK-Blue hTLR7 reporter cells (SEAP). It is filed as cell-based. Here is the method:
The below tests involving measuring the in vitro activity of some compounds of the disclosure on human TLR7 pathway were carried out using parental HEK-Blue™ hTLR7 cells and engineered tumor antigen-expressing HEK-Blue™ hTLR7 cells respectively as reporter cells.
(§1) HEK-Blue™ hTLR7 Cells (#hkb-htlr7) and HEK-Blue™ hTLR8 Cells (#hkb-htlr8) cells from InvivoGen and the engineered tumor antigen expressing cells were used according to the manufacturer's instructions. The HEK-Blue™ hTLR7 and HEK-Blue™ hTLR8 cells were obtained by co-transfection of the hTLR7 or hTLR8 gene in HEK293 cells and an optimized Secreted Embryonic Alkaline Phosphatase (SEAP) reporter gene which is placed under the control of the IFN-β minimal promoter fused to five NF-κB and AP-1-binding sites. The human tumor antigen expressing HEK-Blue™ hTLR7 and hTLR8 cells were obtained by transfection of the tumor antigen genes in the parental cells followed by a polyclonal selection to enrich in cells overexpressing the tumor antigen. Stimulation with a TLR7/8 ligand activates NF-kB and AP-1 which induce the production of SLAP. The cells are seeded in 96-well plate at 3.10E4 cells/well and incubated 24 hours at 37C, 5% CO2 before adding the conjugates to be evaluated. The cells are subsequently incubated with 3-fold serial dilutions of each of the compounds (0.01 nM to 1 μM) for 96 hours at 37° C., 5% CO2. Next, 20 μL of the supernatant is harvested and incubated with 200 μL of QUANTI-Blue™ Solution.

Another data set deals with T2, human TLR8 (Homo sapiens, UniProt Q9NR97).
T2 construct: host or cells: HEK293 (HEK-Blue hTLR8); engineered variant additionally transfected with the CEACAM5 tumor antigen gene
T2 sequence (Q9NR97 27-1041): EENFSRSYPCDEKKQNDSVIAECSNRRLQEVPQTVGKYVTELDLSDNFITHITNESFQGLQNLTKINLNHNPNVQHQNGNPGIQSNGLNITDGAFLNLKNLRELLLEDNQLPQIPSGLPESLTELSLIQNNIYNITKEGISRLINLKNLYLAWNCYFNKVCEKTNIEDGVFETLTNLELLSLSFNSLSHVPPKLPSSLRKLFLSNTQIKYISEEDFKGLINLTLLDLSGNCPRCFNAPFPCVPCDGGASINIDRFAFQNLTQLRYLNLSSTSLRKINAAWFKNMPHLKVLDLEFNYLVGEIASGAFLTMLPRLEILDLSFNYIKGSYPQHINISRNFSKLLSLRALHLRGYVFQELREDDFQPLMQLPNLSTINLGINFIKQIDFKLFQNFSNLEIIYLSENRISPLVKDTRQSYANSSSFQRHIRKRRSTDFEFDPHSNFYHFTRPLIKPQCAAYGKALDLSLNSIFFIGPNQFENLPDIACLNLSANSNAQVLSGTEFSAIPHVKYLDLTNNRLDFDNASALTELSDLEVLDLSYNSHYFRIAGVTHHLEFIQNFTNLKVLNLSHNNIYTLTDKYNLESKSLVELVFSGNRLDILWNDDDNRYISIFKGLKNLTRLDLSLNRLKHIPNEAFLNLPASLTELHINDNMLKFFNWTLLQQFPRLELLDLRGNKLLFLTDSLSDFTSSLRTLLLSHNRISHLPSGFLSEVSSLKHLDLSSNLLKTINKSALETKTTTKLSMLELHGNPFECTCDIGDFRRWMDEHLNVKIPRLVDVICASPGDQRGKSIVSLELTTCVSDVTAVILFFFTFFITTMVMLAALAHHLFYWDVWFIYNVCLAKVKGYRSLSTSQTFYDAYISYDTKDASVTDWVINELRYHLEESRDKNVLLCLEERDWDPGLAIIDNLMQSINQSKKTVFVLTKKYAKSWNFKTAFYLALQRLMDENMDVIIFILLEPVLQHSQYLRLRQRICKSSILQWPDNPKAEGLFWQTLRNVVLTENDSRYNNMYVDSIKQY
As to the kind of experiment: TLR8 pathway activation, parental HEK-Blue hTLR8 reporter cells (SEAP). Format: cell-based. As to conditions: unnumbered table b703.
Description: as §1, with “evaluated.” for “evaluated. The cells are subsequently incubated with 3-fold serial dilutions of each of the compounds (0.01 nM to 1 μM) for 96 hours at 37° C., 5% CO2. Next, 20 μL of the supernatant is harvested and incubated with 200 μL of QUANTI-Blue™ Solution.”

For data set [1], the system named is NFkB pathway THP1-Dual cells. Briefly: Stimulation of human THP-1 monocytic cells, THP1-Dual reporter cells (SEAP, NF-kB). Format: cell-based. Here is the method: The compounds/conjugates of formula (II) according to the disclosure were subjected to pharmacological testing for determining their activity on human monocytic cells that express at their membrane surface Fc receptors that show binding specificity for the Fc part of the compounds/conjugates of formula (II). The below tests involving measuring the in vitro activity of some compounds/conjugates of formula (II) of the disclosure were carried out using THP1-Dual™ cells as reporter monocyte cells. […] THP1-Dual™ cells (#thpd-nfis) from InvivoGen were used according to the manufacturer's instructions. The cells were obtained by stable integration of two inducible reporter constructs in human THP-1 monocyte cells: an optimized Secreted Embryonic Alkaline Phosphatase (SEAP) reporter gene which is placed under the control of the IFN-β minimal promoter fused to five NF-κB and three c-Rel binding sites and a Secreted Lucia luciferase gene which is placed under the control of an ISG54 minimal promoter fused with five interferon (IFN)-stimulated response elements. As a result, THP1-Dual™ cells allow to study the activation of the NF-κB pathway by monitoring the activity of SEAP, and the interferon regulatory factor pathway, by assessing the activity of Lucia luciferase.

Data set [2] has as its target Fc receptors at the membrane surface of human THP-1 monocytic cells. As to the kind of experiment: cell-based or functional assay.
In another data set the target is human CEACAM5 (human) (UniProt P06731). Briefly: cell-based or functional assay.
Chain of human CEACAM5 (human) (P06731 35-685 limits assumed): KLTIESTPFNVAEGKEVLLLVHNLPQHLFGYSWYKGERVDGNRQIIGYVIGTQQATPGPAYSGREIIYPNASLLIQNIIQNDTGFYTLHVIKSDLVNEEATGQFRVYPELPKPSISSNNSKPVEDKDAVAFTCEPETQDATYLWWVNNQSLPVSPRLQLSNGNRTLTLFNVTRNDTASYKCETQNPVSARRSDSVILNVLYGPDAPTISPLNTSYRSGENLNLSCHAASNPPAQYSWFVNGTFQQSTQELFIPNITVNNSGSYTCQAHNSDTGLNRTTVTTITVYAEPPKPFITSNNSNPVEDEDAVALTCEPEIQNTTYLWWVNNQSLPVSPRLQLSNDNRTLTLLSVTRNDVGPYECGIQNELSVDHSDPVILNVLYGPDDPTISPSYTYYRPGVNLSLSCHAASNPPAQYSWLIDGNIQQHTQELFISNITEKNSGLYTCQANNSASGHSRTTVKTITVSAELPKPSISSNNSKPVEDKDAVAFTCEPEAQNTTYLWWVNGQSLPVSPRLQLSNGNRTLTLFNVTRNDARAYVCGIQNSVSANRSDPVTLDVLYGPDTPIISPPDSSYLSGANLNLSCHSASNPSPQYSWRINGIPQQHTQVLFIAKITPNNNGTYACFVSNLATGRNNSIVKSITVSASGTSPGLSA
For data set [3] the following is noted: monotherapy, intravenous; cited from earlier work.
Setting [4] is: Table 1a, 96 hours, read-out: EC50 HEKBlue-hTLR7.
The mark [5] stands for this setting: Homo sapiens, THP1-Dual, Table 6, reference ligands.

For the molecule `CCOCc1nc2c(N)nc3ccccc3c2n1CC(C)(C)N` [Example 3M012, 1-(2-amino-2-methylpropyl)-2-(ethoxymethyl)-1H-imidazo[4,5-c]quinolin-4-amine, reference compound], the half-maximal effective concentration (EC50) at human TLR7 (setting [4]) is 518 nM; at human TLR7 (unnumbered table b703, read-out: EC50 on HEK-Blue ™ hTLR7 cells) it was 518 nM; on human TLR8, 2540 nM.

`CCCN(CCC)C(=O)C1=Cc2ccc(-c3ccc(C(=O)N4CCCC4)cc3)cc2N=C(N)C1` [Motolimod, reference compound] displayed an EC50 in data set [1] (setting [5]) of 394 nM.

For the molecule “EGFR_cetuximab-PEG24-R848 ADC [Example 23]”, at human TLR7 (setting [4]), the EC50 is > 1000 nM.

“CEACAM5_Tusamitamab-PEG8-R848 ADC (Example 8) (antibody)”: the EC50 NFkB pathway THP1-Dual cells in data set [2] came to 1.9 nM.

On to “CEACAM5_Tusamitamab-PEG4-R848 ADC (Example 2) (antibody)”, for which the EC50 NFkB pathway THP1-Dual cells in data set [2] turned out to be 0.8 nM.

In the data set with human CEACAM5 (human), Irrelevant human IgG1 (antibody) came in with an Internalized fluorescent intensity (Median) on HEKBlue-hTLR7-CEACAM5, 4 hours of 144; an Internalized fluorescent intensity (Median) on HEKBlue-hTLR7-CEACAM5, 24 hours of 525; an Internalized fluorescent intensity (Median) on HEKBlue-hTLR7-CEACAM5, 48 hours of 738; an Internalized fluorescent intensity (Median) on HEKBlue-hTLR7-CEACAM5, 72 hours of 833. In the data set with human CEACAM5 (human), this molecule had an Internalized fluorescent intensity (Median) on HEKBlue-hTLR8-CEACAM5, 4 hours of 68; an Internalized fluorescent intensity (Median) on HEKBlue-hTLR8-CEACAM5, 24 hours of 120; an Internalized fluorescent intensity (Median) on HEKBlue-hTLR8-CEACAM5, 48 hours of 151; an Internalized fluorescent intensity (Median) on HEKBlue-hTLR8-CEACAM5, 72 hours of 167.

With `CCOCc1nc2c(N)nc3ccccc3c2n1CC(C)(C)O` [Example R848, 4-amino-2-(ethoxymethyl)-alpha, alpha-dimethyl-1H-imidazo(4,5-c)quinoline-1-ethanol, reference compound], the half-maximal effective concentration (EC50) was determined as 212 nM in data set [1] (setting [5]) and 238 nM in data set [1] (Homo sapiens, THP1-Dual, Table 7b, 96 hours).

“CEACAM5_Tusamitamab-PEG24-R848 ADC [Example 20a]”: the half-maximal effective concentration (EC50) in data set [1] (Table 7a, 96 hours) came to 0.9 nM.

On to `CCNCc1nc2c(N)nc3ccccc3c2n1CC(C)(C)O` [Gardiquimod, reference compound], for which the EC50 in data set [1] (setting [5]) was > 4000 nM.

As to “CEACAM5_Tusamitamab_E152C_S375C-PEG24-R848 ADC [Example 43]”, the 50% effective concentration (EC50) on human TLR7 (Table 1c, 96 hours, read-out: EC50 HEKBlue-hTLR7) is > 1000 nM; in data set [1] (Table 7b, 96 hours) it was 2 nM.

As to “CEACAM5_Tusamitamab-PEG12-R848 ADC [Example 14]”, a half-maximal response in data set [1] (Table 7a, 96 hours) (EC50) required 2.8 nM.

In turn, “CEACAM5_Tusamitamab-PEG24-R848 ADC (Example 20a) (antibody)” had an EC50 NFkB pathway THP1-Dual cells in data set [2] of 0.9 nM.

On to `CCOCc1nc2c(N)nc3ccccc3c2n1CC(C)(C)O.O=S(=O)(O)O` [BDB-001], for which the “treatment-related adverse events, share of the enrolled patients” value in data set [3] is “around 78%”.

“CEACAM5_Tusamitamab-PEG12-R848 ADC (Example 14) (antibody)”: the EC50 NFkB pathway THP1-Dual cells in data set [2] came out at 2.8 nM.

Molecule “CEACAM5_Tusamitamab-PEG8-R848 ADC [Example 8]” displayed an EC50 in data set [1] (Table 7a, 96 hours) of 1.9 nM.

“CEACAM5_Tusamitamab-PEG4-R848 ADC [Example 2]” had an EC50 in data set [1] (Table 7a, 96 hours) of 0.8 nM.
